ChEMBL document CHEMBL3044718, “Effect of phenolic compounds on growth and ligninolytic enzyme production in Botryosphaeria isolates” (2013)
Values after ≈ are worked out from the molar mass of the structure shown. Active and inactive are the calls of the source. No cut-off for these calls is given here.

Experiments:
Diplodia seriata [1] = assay: Inhibition of Diplodia seriata (Schwein.) Shoemaker mycelium growth measured at 28 degC after 4 days; assay type: functional
Lasiodiplodia theobromae [2] = assay: Decrease in Lasiodiplodia theobromae ligninolytic enzyme production assessed as laccase activity using ABTS as substrate at 1 mM measured at 28 degC after 4 days; assay type: functional; details: 96 h
Lasiodiplodia theobromae [3] = assay: Decrease in Lasiodiplodia theobromae mycelium biomass production measured at 28 degC after 4 days by gravimetric analysis; assay type: functional
Lasiodiplodia theobromae [4] = assay: Inhibition of Lasiodiplodia theobromae mycelium growth measured at 28 degC after 4 days; assay type: functional
Neofusicoccum ribis [5] = assay: Inhibition of Neofusicoccum ribis mycelium growth at 25 mM measured at 28 degC after 4 days; assay type: functional; details: 96 h, read-out: GI
Diplodia seriata [6] = assay: Decrease in Diplodia seriata (Schwein.) Shoemaker mycelium biomass production measured at 28 degC after 4 days by gravimetric analysis; assay type: functional
Neofusicoccum ribis [7] = assay: Decrease in Neofusicoccum ribis ligninolytic enzyme production assessed as pectinase activity using pectin as substrate measured at 28 degC after 4 days; assay type: functional, organism-based
Neofusicoccum ribis [8] = assay: Inhibition of Neofusicoccum ribis mycelium growth measured at 28 degC after 4 days; assay type: functional
Botryosphaeria dothidea [9] = assay: Decrease in Botryosphaeria dothidea ligninolytic enzyme production assessed as laccase activity using ABTS as substrate measured at 28 degC after 4 days; assay type: functional, organism-based
Neofusicoccum ribis [10] = assay: Decrease in Neofusicoccum ribis mycelium biomass production at 25 mM measured at 28 degC after 4 days by gravimetric analysis; assay type: functional; details: 96 h
Lasiodiplodia theobromae [11] = assay: Inhibition of Lasiodiplodia theobromae mycelium growth at 25 mM measured at 28 degC after 4 days; assay type: functional; details: 96 h, read-out: GI
Lasiodiplodia theobromae [12] = assay: Decrease in Lasiodiplodia theobromae ligninolytic enzyme production assessed as pectinase activity using pectin as substrate at 25 mM measured at 28 degC after 4 days; assay type: functional; details: 96 h
Botryosphaeria dothidea [13] = assay: Decrease in Botryosphaeria dothidea ligninolytic enzyme production assessed as pectinase activity using pectin as substrate at 1 mM measured at 28 degC after 4 days; assay type: functional, organism-based
Botryosphaeria dothidea [14] = assay: Decrease in Botryosphaeria dothidea ligninolytic enzyme production assessed as laccase activity using ABTS as substrate at 5 mM measured at 28 degC after 4 days; assay type: functional
Diplodia seriata [15] = assay: Inhibition of Diplodia seriata (Schwein.) Shoemaker mycelium growth at 25 mM measured at 28 degC after 4 days; assay type: functional; details: 96 h, read-out: GI
Botryosphaeria dothidea [16] = assay: Inhibition of Botryosphaeria dothidea mycelium growth at 25 mM measured at 28 degC after 4 days; assay type: functional; details: 96 h, read-out: GI
Botryosphaeria dothidea [17] = assay: Inhibition of Botryosphaeria dothidea mycelium growth measured at 28 degC after 4 days; assay type: functional
Neofusicoccum ribis [18] = assay: Inhibition of Neofusicoccum ribis mycelium growth at 20 mM measured at 28 degC after 4 days; assay type: functional, organism-based
Diplodia seriata [19] = assay: Inhibition of Diplodia seriata (Schwein.) Shoemaker mycelium growth at 10 mM measured at 28 degC after 4 days; assay type: functional, organism-based
Botryosphaeria dothidea [20] = assay: Decrease in Botryosphaeria dothidea ligninolytic enzyme production assessed as laccase activity using ABTS as substrate at 25 mM measured at 28 degC after 4 days; assay type: functional; details: 96 h
Lasiodiplodia theobromae [21] = assay: Inhibition of Lasiodiplodia theobromae mycelium growth at 20 mM measured at 28 degC after 4 days; assay type: functional; details: 96 h, read-out: GI
Diplodia seriata [22] = assay: Decrease in Diplodia seriata (Schwein.) Shoemaker ligninolytic enzyme production assessed as pectinase activity using pectin as substrate at 1 mM measured at 28 degC after 4 days; assay type: functional, organism-based
Phellinus tremulae = assay: Inhibition of Phellinus tremulae mycelium growth; assay type: functional
Botryosphaeria dothidea [23] = assay: Inhibition of Botryosphaeria dothidea mycelium growth at 10 mM measured at 28 degC after 4 days; assay type: functional, organism-based
Diplodia seriata [24] = assay: Inhibition of Diplodia seriata (Schwein.) Shoemaker mycelium growth at 15 mM measured at 28 degC after 4 days; assay type: functional, organism-based
Botryosphaeria dothidea [25] = assay: Inhibition of Botryosphaeria dothidea mycelium growth at 20 mM measured at 28 degC after 4 days; assay type: functional, organism-based
Botryosphaeria dothidea [26] = assay: Decrease in Botryosphaeria dothidea ligninolytic enzyme production assessed as laccase activity using ABTS as substrate at 1 mM measured at 28 degC after 4 days; assay type: functional
Diplodia seriata [27] = assay: Decrease in Diplodia seriata (Schwein.) Shoemaker ligninolytic enzyme production assessed as laccase activity using ABTS as substrate at 1 mM measured at 28 degC after 4 days; assay type: functional; details: 96 h
Neofusicoccum ribis [28] = assay: Decrease in Neofusicoccum ribis ligninolytic enzyme production assessed as laccase activity using ABTS as substrate at 1 mM measured at 28 degC after 4 days; assay type: functional; details: 96 h
Diplodia seriata [29] = assay: Decrease in Diplodia seriata (Schwein.) Shoemaker ligninolytic enzyme production assessed as pectinase activity using pectin as substrate at 15 mM measured at 28 degC after 4 days; assay type: functional, organism-based
Lasiodiplodia theobromae [30] = assay: Inhibition of Lasiodiplodia theobromae mycelium growth at 15 mM measured at 28 degC after 4 days; assay type: functional; details: 96 h, read-out: GI
Botryosphaeria dothidea [31] = assay: Decrease in Botryosphaeria dothidea ligninolytic enzyme production assessed as laccase activity using ABTS as substrate at 15 mM measured at 28 degC after 4 days; assay type: functional, organism-based
Neofusicoccum ribis [32] = assay: Inhibition of Neofusicoccum ribis mycelium growth at 15 mM measured at 28 degC after 4 days; assay type: functional, organism-based

| SMILES | MIC (Diplodia seriata [1]; 96 h) [mM] | inhibition at 1000 µM (Lasiodiplodia theobromae [2]) [%] | inhibition (INH) (Lasiodiplodia theobromae [3]) [%] | MIC (Lasiodiplodia theobromae [4]; 96 h) [mM] | inhibition of growth at 25000 µM (Neofusicoccum ribis [5]) [%] | inhibition (INH) (Diplodia seriata [6]) [%] | inhibition (Neofusicoccum ribis [7]) | MIC (Neofusicoccum ribis [8]; 96 h) [mM] | inhibition (Botryosphaeria dothidea [9]) | inhibition at 25000 µM (Neofusicoccum ribis [10]) [%] | inhibition of growth at 25000 µM (Lasiodiplodia theobromae [11]) [%] | inhibition at 25000 µM (Lasiodiplodia theobromae [12]) [%] | inhibition (Botryosphaeria dothidea [13]) | MIC (Botryosphaeria dothidea [17]; 96 h) [mM] | growth inhibition (GI) (Neofusicoccum ribis [18]) | growth inhibition (GI) (Diplodia seriata [24]) | other results |
| --- | --- | --- | --- | --- | --- | --- | --- | --- | --- | --- | --- | --- | --- | --- | --- | --- | --- |
| COc1cccc(OC)c1C(=O)O [2,6-DIMETHOXYBENZOIC ACID] | 5 (≈ 911 µg/mL) | 58 | 58 | 5 (≈ 911 µg/mL) | 86 | 58 | inactive | 5 (≈ 911 µg/mL) | Active | 50 | 62 | 57 | inactive | 5 (≈ 911 µg/mL) |  |  | inhibition (Botryosphaeria dothidea [14]): inactive; inhibition of growth at 25000 µM (Diplodia seriata [15]): 95%; inhibition of growth at 25000 µM (Botryosphaeria dothidea [16]): 95% |
| O=C(O)c1ccccc1 [BENZOIC ACID] | 5 (≈ 611 µg/mL) | 58 |  | 5 (≈ 611 µg/mL) |  |  | inactive | 5 (≈ 611 µg/mL) |  | 50 |  | 57 | inactive | 5 (≈ 611 µg/mL) | Active |  | growth inhibition (GI) (Diplodia seriata [19]): Active; inhibition at 25000 µM (Botryosphaeria dothidea [20]): 96%; inhibition of growth at 20000 µM (Lasiodiplodia theobromae [21]): 100%; inhibition (Diplodia seriata [22]): Active; MIC (Phellinus tremulae): 800 µg/mL (≈ 6.55 mM); growth inhibition (GI) (Botryosphaeria dothidea [23]): Active |
| Oc1ccccc1O [CATECHOL] | 5 (≈ 551 µg/mL) | 58 | 58 | 5 (≈ 551 µg/mL) |  | 58 | inactive | 5 (≈ 551 µg/mL) |  | 100 |  | 57 | inactive | 5 (≈ 551 µg/mL) | Active | Active | inhibition of growth at 20000 µM (Lasiodiplodia theobromae [21]): 100%; growth inhibition (GI) (Botryosphaeria dothidea [25]): Active |
| O=C(O)/C=C/c1ccc(O)cc1 [COUMARIC ACID] | 5 (≈ 821 µg/mL) | 71 | 58 | 5 (≈ 821 µg/mL) | 81 | 58 | inactive | 5 (≈ 821 µg/mL) | Active |  | 100 | 57 | inactive | 5 (≈ 821 µg/mL) |  |  | growth inhibition (GI) (Diplodia seriata [19]): Active; inhibition at 1000 µM (Botryosphaeria dothidea [26]; 96 h): 71%; inhibition at 1000 µM (Diplodia seriata [27]): 71%; growth inhibition (GI) (Botryosphaeria dothidea [23]): Active; inhibition at 1000 µM (Neofusicoccum ribis [28]): 71% |
| COc1cc(/C=C/C(=O)O)ccc1O [FERULATE] | 5 (≈ 971 µg/mL) | 82 | 58 | 5 (≈ 971 µg/mL) | 74 | 58 | inactive | 5 (≈ 971 µg/mL) | Active |  | 81 | 57 | inactive | 5 (≈ 971 µg/mL) |  | Active | inhibition at 5000 µM (Botryosphaeria dothidea [14]; 96 h): 90%; inhibition at 1000 µM (Neofusicoccum ribis [28]): 82% |
| COc1ccccc1O [GUAIACOL] | 5 (≈ 621 µg/mL) | 58 | 58 | 5 (≈ 621 µg/mL) |  | 58 | inactive | 5 (≈ 621 µg/mL) | Active |  |  | 57 |  | 5 (≈ 621 µg/mL) | Active | Active | inhibition (Diplodia seriata [29]): Active; inhibition of growth at 15000 µM (Lasiodiplodia theobromae [30]): 100%; inhibition (Botryosphaeria dothidea [26]): inactive |
| O=C(O)c1ccccc1O [SALICYLIC ACID] | 5 (≈ 691 µg/mL) | 58 | 58 | 5 (≈ 691 µg/mL) |  | 58 | inactive | 5 (≈ 691 µg/mL) | Active | 50 | 100 | 57 | inactive | 5 (≈ 691 µg/mL) | Active | Active | inhibition (Botryosphaeria dothidea [31]): Active |
| COc1cc(C(=O)O)cc(OC)c1O [SYRINGIC ACID] |  | 58 |  |  |  |  | inactive |  |  |  |  | 57 | inactive |  |  |  | MIC (Diplodia seriata [1]): inactive; inhibition (Lasiodiplodia theobromae [3]): inactive; MIC (Lasiodiplodia theobromae [4]): inactive; inhibition (Diplodia seriata [6]): inactive; MIC (Neofusicoccum ribis [8]): inactive; inhibition (Diplodia seriata [22]): Active; MIC (Botryosphaeria dothidea [17]): inactive |
| COc1cccc(OC)c1O [SYRINGOL] | 5 (≈ 771 µg/mL) | 58 | 58 | 5 (≈ 771 µg/mL) |  | 58 | inactive | 5 (≈ 771 µg/mL) | Active | 50 |  | 57 | inactive | 5 (≈ 771 µg/mL) |  | Active | inhibition of growth at 15000 µM (Lasiodiplodia theobromae [30]): 100%; growth inhibition (GI) (Neofusicoccum ribis [32]): Active; growth inhibition (GI) (Botryosphaeria dothidea [25]): Active |
| COc1cc(C(=O)O)ccc1O [VANILLIC ACID] | 5 (≈ 841 µg/mL) | 58 | 58 | 5 (≈ 841 µg/mL) | 83 | 58 | inactive | 5 (≈ 841 µg/mL) | Active | 50 | 52 | 57 | inactive | 5 (≈ 841 µg/mL) |  | Active | inhibition (Botryosphaeria dothidea [31]): Active; inhibition (Botryosphaeria dothidea [14]): inactive; inhibition of growth at 25000 µM (Botryosphaeria dothidea [16]): 93% |
